In the supplement of paper PMC10307832:

How the values were obtained:
Experiment in all cases: relative viability (nuclei count vs DMSO), 5 days (fraction); higher = more cells survive
[1] = system: NCI-H838
Method in brief: (§1)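 The day after seeding in 1536-well plates, lung cancer cell lines were treated by pin tool with a single drug, or with a fixed anchor-drug dose together with five library-drug doses (not always all listed) in √10 steps. After 5 days, a combined fix-and-stain solution (final 0.05% Triton X-100, 1% formaldehyde, 1 ug/ml Hoechst) was added. Nuclei counted on 4× images gave relative viability as treated counts over vehicle counts, reported as the median of duplicate plates.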

[2] = system: ChaGo-K-1
Method in brief: as §1

[3] = system: HOP-62
Method in brief: as §1

[4] = system: SK-LU-1
Method in brief: as §1

[5] = system: NCI-H2023
Method in brief: as §1

[6] = system: NCI-H1793
Method in brief: as §1

[7] = system: HCC-78
Method in brief: as §1

[8] = system: NCI-H1944
Method in brief: as §1

[9] = system: NCI-H2405
Method in brief: as §1

[10] = system: HCC-15
Method in brief: as §1

[11] = system: NCI-H2228
Method in brief: as §1

[12] = system: ABC-1
Method in brief: as §1

[13] = system: HARA
Method in brief: as §1

[14] = system: NCI-H1993
Method in brief: as §1

[15] = system: EMC-BAC-2
Method in brief: as §1

[16] = system: NCI-H23
Method in brief: as §1

[17] = system: COR-L23
Method in brief: as §1

[18] = system: NCI-H2126
Method in brief: as §1

[19] = system: NCI-H358
Method in brief: as §1

[20] = system: HCC-366
Method in brief: as §1

[21] = system: NCI-H1395
Method in brief: as §1

[22] = system: LC-2-ad
Method in brief: as §1

Cc1sc2c(c1C)C(c1ccc(Cl)cc1)=N[C@@H](CC(=O)OC(C)(C)C)c1nnc(C)n1-2 [JQ1] + Cc1nc(Nc2ncc(C(=O)Nc3c(C)cccc3Cl)s2)cc(N2CCN(CCO)CC2)n1 [Dasatinib] (partner 0.075 µM)
relative viability ([1]; first compound 0.04 µM): 0.294 | relative viability ([1]; first compound 0.1265 µM): 0.217 | relative viability ([1]; first compound 0.4 µM): 0.264 | relative viability ([1]; first compound 1.265 µM): 0.229 | relative viability ([1]; first compound 4 µM): 0.201 | relative viability ([2]; first compound 0.04 µM): 0.663 | relative viability ([2]; first compound 0.1265 µM): 0.462 | relative viability ([2]; first compound 0.4 µM): 0.44 | relative viability ([2]; first compound 1.265 µM): 0.485 | relative viability ([2]; first compound 4 µM): 0.397 | relative viability ([3]; first compound 0.04 µM): 0.559 | relative viability ([3]; first compound 0.1265 µM): 0.31 | relative viability ([3]; first compound 0.4 µM): 0.355 | relative viability ([3]; first compound 1.265 µM): 0.158 | relative viability ([3]; first compound 4 µM): 0.116 | relative viability ([4]; first compound 0.04 µM): 0.185 | relative viability ([4]; first compound 0.1265 µM): 0.18 | relative viability ([4]; first compound 0.4 µM): 0.182 | relative viability ([4]; first compound 1.265 µM): 0.124 | relative viability ([4]; first compound 4 µM): 0.11 | relative viability ([5]; first compound 0.04 µM): 0.5 | relative viability ([5]; first compound 0.1265 µM): 0.339 | relative viability ([5]; first compound 0.4 µM): 0.272 | relative viability ([5]; first compound 1.265 µM): 0.178 | relative viability ([5]; first compound 4 µM): 0.15 | relative viability ([6]; first compound 0.04 µM): 0.312 | relative viability ([6]; first compound 0.1265 µM): 0.345 | relative viability ([6]; first compound 0.4 µM): 0.435 | relative viability ([6]; first compound 1.265 µM): 0.385 | relative viability ([6]; first compound 4 µM): 0.418 | relative viability ([7]; first compound 0.04 µM): 0.364 | relative viability ([7]; first compound 0.1265 µM): 0.419 | relative viability ([7]; first compound 0.4 µM): 0.366 | relative viability ([7]; first compound 1.265 µM): 0.319 | relative viability ([7]; first compound 4 µM): 0.248 | relative viability ([8]; first compound 0.04 µM): 0.202 | relative viability ([8]; first compound 0.1265 µM): 0.14 | relative viability ([8]; first compound 0.4 µM): 0.204 | relative viability ([8]; first compound 1.265 µM): 0.179 | relative viability ([8]; first compound 4 µM): 0.214 | relative viability ([9]; first compound 0.04 µM): 0.19 | relative viability ([9]; first compound 0.1265 µM): 0.195 | relative viability ([9]; first compound 0.4 µM): 0.19 | relative viability ([9]; first compound 1.265 µM): 0.169 | relative viability ([9]; first compound 4 µM): 0.147 | relative viability ([10]; first compound 0.04 µM): 0.524 | relative viability ([10]; first compound 0.4 µM): 0.5 | relative viability ([10]; first compound 1.265 µM): 0.339 | relative viability ([10]; first compound 4 µM): 0.227 | relative viability ([11]; first compound 0.04 µM): 0.416 | relative viability ([11]; first compound 0.1265 µM): 0.476 | relative viability ([11]; first compound 0.4 µM): 0.515 | relative viability ([11]; first compound 1.265 µM): 0.189 | relative viability ([11]; first compound 4 µM): 0.245 | relative viability ([12]; first compound 0.04 µM): 0.583 | relative viability ([12]; first compound 0.1265 µM): 0.413 | relative viability ([12]; first compound 0.4 µM): 0.417 | relative viability ([12]; first compound 1.265 µM): 0.429 | relative viability ([12]; first compound 4 µM): 0.333 | relative viability ([13]; first compound 0.04 µM): 0.207 | relative viability ([13]; first compound 0.1265 µM): 0.242 | relative viability ([13]; first compound 0.4 µM): 0.309 | relative viability ([13]; first compound 1.265 µM): 0.236 | relative viability ([13]; first compound 4 µM): 0.247 | relative viability ([14]; first compound 0.04 µM): 0.574 | relative viability ([14]; first compound 0.1265 µM): 0.798 | relative viability ([14]; first compound 0.4 µM): 0.597 | relative viability ([14]; first compound 1.265 µM): 0.532 | relative viability ([14]; first compound 4 µM): 1.44 | relative viability ([15]; first compound 0.04 µM): 0.33 | relative viability ([15]; first compound 0.1265 µM): 0.235 | relative viability ([15]; first compound 0.4 µM): 0.254 | relative viability ([15]; first compound 1.265 µM): 0.205 | relative viability ([15]; first compound 4 µM): 0.371 | relative viability ([16]; first compound 0.04 µM): 0.666 | relative viability ([16]; first compound 0.1265 µM): 0.656 | relative viability ([16]; first compound 0.4 µM): 0.579 | relative viability ([16]; first compound 1.265 µM): 0.275 | relative viability ([16]; first compound 4 µM): 0.344 | relative viability ([17]; first compound 0.04 µM): 0.507 | relative viability ([17]; first compound 0.1265 µM): 0.351 | relative viability ([17]; first compound 0.4 µM): 0.516 | relative viability ([17]; first compound 1.265 µM): 0.279 | relative viability ([17]; first compound 4 µM): 0.256 | relative viability ([18]; first compound 0.04 µM): 0.651 | relative viability ([18]; first compound 0.1265 µM): 0.575 | relative viability ([18]; first compound 0.4 µM): 0.431 | relative viability ([18]; first compound 1.265 µM): 0.433 | relative viability ([18]; first compound 4 µM): 0.35 | relative viability ([19]; first compound 0.04 µM): 0.182 | relative viability ([19]; first compound 0.1265 µM): 0.262 | relative viability ([19]; first compound 0.4 µM): 0.279 | relative viability ([19]; first compound 1.265 µM): 0.183 | relative viability ([19]; first compound 4 µM): 0.209 | relative viability ([20]; first compound 0.04 µM): 0.667 | relative viability ([20]; first compound 0.4 µM): 0.599 | relative viability ([20]; first compound 1.265 µM): 0.368 | relative viability ([20]; first compound 4 µM): 0.324 | relative viability ([21]; first compound 0.04 µM): 0.36 | relative viability ([21]; first compound 0.1265 µM): 0.364 | relative viability ([21]; first compound 0.4 µM): 0.362 | relative viability ([21]; first compound 1.265 µM): 0.355 | relative viability ([21]; first compound 4 µM): 0.388 | relative viability ([22]; first compound 0.04 µM): 0.505 | relative viability ([22]; first compound 0.1265 µM): 0.472 | relative viability ([22]; first compound 0.4 µM): 0.219 | relative viability ([22]; first compound 1.265 µM): 0.178 | relative viability ([22]; first compound 4 µM): 0.191
